From a melting point compilation (Tetko et al.; mined from patent text by program, amines drawn as free bases though some values may be those of a salt)

First: COc1cc2c(cc1C(F)(F)F)N(C(=O)Nc1cc(Br)c(C)c(-c3cccnc3)c1)CC2
Second: COc1ccnc(CSc2nc3c(C(F)(F)F)cccc3[nH]2)c1
The melting point of the first is higher: 216 to 218 °C for the first, 146 °C for the second.

First: CC(C)Cn1c(C#N)c(-c2ccccc2)c2cccnc2c1=O
Second: COc1cccc2c3c(c(=O)[nH]c12)CCN3c1ccccc1
The melting point of the first is higher: 221 to 222 °C for the first, 75 to 77 °C for the second.

First: CCc1nc(N)nc(N)c1CCC(C)c1cccc(C(F)(F)F)c1 (stereo not given)
Second: CC1=CC(c2cccc(C(F)(F)F)c2)C2=C(CCCC2=O)N1 (stereo not given)
The melting point of the first is lower: 93 to 96 °C for the first, 184 to 185 °C for the second.

Compared with `COC(=O)[C@@H](NC(=O)Oc1ccccc1)C(C)C`, `C=COC(=O)[C@H](Cc1ccccc1)NC(C)=O` is higher in melting point: 59.1 °C for the first, 90 to 93 °C for the second.

Compared with `CS(=O)(=O)c1ccc(-c2cnn(CC(F)(F)F)c(=O)c2OC2CCCCC2)cc1`, `COc1cc2c(c(Cl)c1Cl)C(=O)C(c1ccccc1)(C1CCCC1)C2` (stereo not given) is lower in melting point: 129 to 130 °C for the first, 105 to 108 °C for the second.

Compared with `CCOC(=O)c1cc(Oc2ccc3c(C(=O)O)cccc3c2)ncn1`, `CCCNC(=O)c1cc2cc(OCCNC[C@H](O)COc3ccccc3)ccc2o1` is lower in melting point: 211 to 212 °C for the first, 127 to 128 °C for the second.

First: O=Cc1ccc(-c2c(-c3nn[nH]n3)[nH]c3ccccc23)cc1
Second: O=Cc1ccc(CCc2ccc(C=O)cc2)cc1
The melting point of the first is higher: 210 to 212 °C for the first, 121 to 122 °C for the second.

First: CCOC1=NS(=O)(=O)c2cc(NC(=O)CC)ccc21
Second: CCOc1ccc(C(C)=O)cc1C(=O)O
The melting point of the first is higher: 188 to 192 °C for the first, 122 to 125 °C for the second.

`Cc1cc(=O)n(-c2cc3[nH]c(=O)sc3cc2F)c(=O)n1C` and `Cc1nc2cc(Br)ccc2c(=O)n1C1CCC(=O)NC1=O` (stereo not given) cannot be ordered by melting point: over 250 °C for the first, 315 to 317 °C for the second.

First: CON=C(c1ccccc1OCc1ccc(Cl)cc1)n1ccnc1
Second: O=[N+]([O-])c1ccc(CSc2ccc(Cl)cc2)cc1
The melting point of the first is higher: 92.5 to 93.5 °C for the first, 66 to 68 °C for the second.

First: NS(=O)(=O)c1cc2c(s1)SC(CC(=O)O)C(=O)N2 (stereo not given)
Second: COc1cc2c(cc1Cl)C(c1ccccc1Cl)C(=O)N2 (stereo not given)
The melting point of the first is lower: 240 °C for the first, 243 to 247 °C for the second.

First: CC1(C)Nc2cccc3cccc(c23)N1
Second: CN(C)Cc1ccccc1-c1ccc(Br)cc1
The melting point of the first is higher: 114 to 115 °C for the first, 60 to 62 °C for the second.

Compared with `CCCc1nc2c(N)nc3ccccc3c2n1CCOCCCS(C)=O` (stereo not given), `Cc1nc2c(N)nc3ccccc3c2n1CCCCOCCCc1ccccc1` is lower in melting point: 148 to 151 °C for the first, 105 to 106 °C for the second.

First: CC(=O)NCc1ccc(C(C)(C)NC(=O)OCc2ccccc2)cc1
Second: C=C(C)C(=O)NC(=O)NCc1ccccc1
The melting point of the first is higher: 132 to 135 °C for the first, 96 to 98 °C for the second.

Compared with `O=Cc1ccccc1P(=O)(c1ccccc1)c1ccccc1`, `O=C(C=C1OC(=O)c2ccccc21)c1ccccc1` is lower in melting point: 131 to 134 °C for the first, 105 °C for the second.

First: CC1(C)CC(NCC(O)COc2ccc(C(=O)c3ccccc3)c(O)c2)CC(C)(C)N1OC1CCCCC1 (stereo not given)
Second: CCCN(CCN1CCN(C(=O)c2n[nH]c3ccccc23)CC1)C1CCc2c(O)cccc2C1 (stereo not given)
The melting point of the first is lower: 118 to 121 °C for the first, 167 to 170 °C for the second.

Compared with `CC(C)(C)OC(=O)CON=C(c1ccccc1)c1cc2ccncc2[nH]1`, `CC(C)(C)C(=O)OCOC(=O)[C@H]1C[C@H](NC(=O)Cc2ccccc2)c2c(Cl)cc(Cl)cc2N1` (relative stereo) is higher in melting point: 47 to 52 °C for the first, 162 to 163 °C for the second.

First: CN(C)CCCCC(=O)N1CCC(c2[nH]nc3c2C(=O)c2c(NC(=O)NN4CCOCC4)cccc2-3)CC1
Second: Cc1c(-c2ccnc(Nc3ccc(C(=O)N4CCOCC4)cc3)n2)cccc1[N+](=O)[O-]
The melting point of the first is lower: 68 to 70 °C for the first, 187 to 188 °C for the second.

First: COC(=O)C1CC2(CN1C(=O)CN(C)CC(=O)C(Cc1ccccc1)NC(=O)c1ccccc1)SCCS2 (stereo not given)
Second: COC(=O)CC(Cc1ccccc1)C(=O)N[C@@H](Cc1ccccc1)C(=O)O (stereo not given in full)
The melting point of the first is lower: 60 to 62 °C for the first, 100 to 104 °C for the second.

First: COC(=O)c1c(Br)ccc2nn(C)c(C)c12
Second: COc1cn(C(C)=O)c2ccc(F)cc12
The melting point of the first is lower: 109 to 111 °C for the first, 124 to 125 °C for the second.

First: CCOC(=O)c1snnc1SC
Second: CCOC(=O)CC(C)N=c1sc2ccc(Cl)cc2s1 (stereo not given)
The melting point of the first is higher: 64.5 to 65.5 °C for the first, 60 to 61 °C for the second.

First: CCN1C(=O)N(c2cc(OC)cc(OC)c2F)Cc2cnc(NC3CCC(O)CC3)nc21 (stereo not given)
Second: COc1cc(OC)c2ncn(/C=C/C(=O)O)c(=O)c2c1
The melting point of the first is lower: 198 to 204 °C for the first, 305 to 307 °C for the second.

Compared with `Cc1cccc(N2CCN(CCCCc3ccc(C(CCC(=O)O)=NO)cc3)CC2)c1`, `Cc1ccc(C(=O)c2cccc3c2CCCC3C(=O)O)cc1` (stereo not given) is lower in melting point: 175 to 177 °C for the first, 102 to 103 °C for the second.

First: CC(Cn1ncnn1)n1nnc2cc3c(=O)n(C)nnc3cc2c1=O (stereo not given)
Second: COc1ccc(-c2ccnc3c(C(N)=O)ncn23)cc1OC
The melting point of the first is lower: 228 to 230 °C for the first, 262 to 265 °C for the second.

First: COc1ccc(CCCN2CCc3cc(O)ccc3C2)cc1
Second: COC(=O)CCCc1cc2nc(Cl)ccc2n1S(=O)(=O)c1cc(OC)ccc1OC
The melting point of the first is higher: 163 to 164 °C for the first, 102 °C for the second.

First: O=C(NC(=O)N(SN1CCCC1=O)c1ccc(Oc2ccc(C(F)(F)F)cc2Cl)cc1F)c1c(F)cccc1F
Second: CC(C)(CCc1nnn[nH]1)c1ccc(C(=O)Nc2cn3cc(C(F)(F)F)ccc3n2)cc1
The melting point of the first is lower: 125 to 126 °C for the first, 250 to 251 °C for the second.

First: Fc1ccccc1CNc1nc(Cl)ncc1F
Second: CNCCCc1nc2ccccc2[nH]1
The melting point of the first is lower: 117 to 118 °C for the first, 134 to 136 °C for the second.

Compared with `CCc1cc([N+](=O)[O-])cc(C=O)c1O`, `CCOC(=O)C1=C2NCCN2C(C)=C(C(C)=O)C1c1cccc([N+](=O)[O-])c1` (stereo not given) is higher in melting point: 93.5 to 94 °C for the first, 155 °C for the second.

First: CC(C)(C)OC(=O)C1CCCN2C(=O)CC(=O)N12 (stereo not given)
Second: Cc1ccc(C(=O)Nc2ccc(N3CCN(C(=O)OC(C)(C)C)CC3)cc2)c(-c2ccc(C(C)C)cc2)c1
The melting point of the first is lower: 121 to 122 °C for the first, 173 to 175 °C for the second.

First: N#Cc1cc(C(=O)c2ccncc2)ccc1O
Second: CC(=O)Nc1ccc(C(=O)c2cc(-c3ccncc3)c(N3CCOCC3)s2)cc1
The melting point of the first is higher: 310 to 311 °C for the first, 139 °C for the second.

First: C=CCOC(=O)c1c(Oc2nc(OC)cc(OC)n2)ccc2[nH]c(C)c(NC(C)=O)c12
Second: CC(=O)c1c(CO)[nH]c(-c2ccncc2)c1C
The melting point of the first is higher: 177 to 180 °C for the first, 163 to 165 °C for the second.

Compared with `CC(C)NC1=NS(=O)(=O)c2cc(Cl)cc(N)c2N1`, `CCCC(CNc1cc(Cl)ccc1C(=O)O)C(=O)O` (stereo not given) is lower in melting point: over 230 °C for the first, 206 °C for the second.

Compared with `COc1ccc(Cn2nnnc2C2N3C(=O)C(NC(c4ccccc4)(c4ccccc4)c4ccccc4)C3SC2(C)C)cc1` (stereo not given), `NC(=O)CN1C(=O)C(NC(=O)c2cc3ccccc3[nH]2)C(Cc2ccccc2)Sc2ccccc21` (stereo not given) is higher in melting point: 178 to 182 °C for the first, 275 °C for the second.

Compared with `CC(=O)Nc1nc(C(N)=O)cs1`, `CC(=O)NC[C@H]1CN(c2ccc(-c3noc(C#N)n3)c(F)c2)C(=O)O1` is lower in melting point: over 250 °C for the first, 200 to 202 °C for the second.

Compared with `CO[C@@H]1CN(CC2OCCO2)CC[C@@H]1NC(=O)c1cc(Cl)c(N)c2c1OCC2` (relative stereo), `Cn1cc(C(=O)c2ccc(Cl)cc2)cc1C(=O)CN1CCCCC1` is lower in melting point: 149 °C for the first, 129 to 130 °C for the second.

First: O=C(C=Cc1cccc(NC(=O)C=Cc2ccccc2)c1)NO
Second: O=C1NCCN1c1ccc(S(=O)(=O)Nc2ccccc2)cc1
The melting point of the first is lower: 178 °C for the first, 262 to 264 °C for the second.

First: C=C[C@H](O)[C@@H](N)CC1CCCCC1
Second: N#CC[C@@H]1CC[C@@H]2CN(c3noc4ccccc34)CCN2C1 (relative stereo)
The melting point of the first is lower: 59 to 61 °C for the first, 184 to 186 °C for the second.

Compared with `CNC(=O)c1cccc(C)c1Nc1nc(Nc2ccc3c(c2)C(=O)NCCC3)ncc1Cl`, `Cc1ccc(N2CCN(c3cc4c(ncc5c4c(=O)c(C(=O)O)cn5C)c(F)c3Cl)CC2)cc1F` is higher in melting point: 259 °C for the first, 360 °C for the second.

Compared with `CC(c1ccc(F)cc1)N1CCC(n2cnc3ccccc3c2=O)CC1` (stereo not given), `O=C(c1ccc(OC(F)F)c2oc3ccccc3c12)[NH+]([O-])c1ccncc1` (stereo not given) is higher in melting point: 179 to 180 °C for the first, 244 °C for the second.

First: C=CN(Cc1ccccc1)C(=O)C(F)(F)C(F)(F)C(F)(F)C(F)(F)C(F)(F)C(F)F
Second: FC(F)(F)c1ccccc1P(=S)(S)c1ccccc1C(F)(F)F
The melting point of the first is lower: 53 to 57 °C for the first, 93 to 94 °C for the second.

First: CC(C)(C)NCC(O)c1ccc(N)c(C#N)c1 (stereo not given)
Second: Cc1cncn1Cc1cc(C(C)(C)O)cc(C(C)(C)C#N)c1
The melting point of the first is higher: 181 to 185 °C for the first, 128 to 131 °C for the second.

Compared with `CC(C)(C)c1nc(N)nc(C(C)(C)C)c1O`, `CCCc1c(OCCCCCCc2cc(O)c(O)c(C(C)C)c2)ccc(C(=O)O)c1O` is higher in melting point: 92 to 93 °C for the first, 138 to 140 °C for the second.

`O=C(Nc1ccc(C2(O)CCCN(C(=O)OCc3ccccc3)C2)c(F)c1)OCc1ccccc1` (stereo not given) and `c1cncc(CC2(Cc3cccnc3)c3ccccc3-c3ccccc32)c1` cannot be ordered by melting point: 137 to 139 °C for the first, 137 to 138 °C for the second.

First: CN(C)c1cccc(OC(=O)NC2C(=O)N(CC34CC5CC(CC(C5)C3)C4)c3ccccc3N(c3ccccc3)C2=O)c1 (stereo not given)
Second: N#Cc1ccccc1N1CCN(CNC(=O)c2ccccc2)CC1
The melting point of the first is lower: 130 to 132 °C for the first, 148 to 150 °C for the second.

First: O=c1[nH]c2cc3nc(-c4ccncc4)[nH]c3cc2[nH]c1=O
Second: O=C(c1ccc(-c2ccncc2)nc1)N1CCN(S(=O)(=O)c2ccc3cc(Br)ccc3c2)CC1
The melting point of the first is higher: over 300 °C for the first, 194 °C for the second.

Compared with `Cc1ccc(S(=O)(=O)OC(=O)c2ccc(C(=O)OS(=O)(=O)c3ccc(C)cc3)cc2)cc1`, `CCCc1cccc(CNC(=O)c2nc3scc(COCc4ccc(C(=O)O)cc4)c3c(=O)[nH]2)c1` is higher in melting point: 170 to 176 °C for the first, 235 to 237 °C for the second.

Compared with `CCCCCCCCCCCCOC(=O)NCCC(=O)NC(Cc1c[nH]cn1)C(=O)O` (stereo not given), `CCCCCCCCCCCCCCOc1ccc(CC(=O)Nc2cccc(C(=O)OCC)c2)cc1` is lower in melting point: 168 to 172 °C for the first, 91 to 94 °C for the second.

First: O=C1OC(CCI)C(O)=C1O (stereo not given)
Second: O=C(OCCCl)c1cccc(O)c1
The melting point of the first is higher: 150 to 151 °C for the first, 50 °C for the second.

First: CN(C(c1ccccc1)c1ccccc1)S(=O)(=O)CC(N)=O
Second: c1ccc(OCCSCc2nnc(-c3ccc(OCCN4CCOCC4)cc3)o2)cc1
The melting point of the first is higher: 110 to 115 °C for the first, 70 to 72 °C for the second.

Compared with `Cc1ccc(Cc2cnc(NCCCCc3cc(CN(C)C)ccn3)[nH]c2=O)cn1`, `CCCOc1ccc(S(=O)(=O)NCC2(NCC)CCCCCC2)cc1-c1nc2c([nH]1)c1nncn1c(=O)n2CCC` is higher in melting point: 135 to 137 °C for the first, 203 °C for the second.
